The source of these data is patent US4820834A, “Benzodiazepine analogs” (priority 1987, dated 1989).

Molecules are shown by their SMILES. pIC50: −log10 of the molar value. Read-outs that look alike come from different tables or passages of the source.

One test deals with T1, CCK receptor (pancreas) (Rattus norvegicus, UniProt P30551).
T1 construct: The whole pancreas was dissected free of fat tissue and was homogenized; from tissue; host or cells: rat pancreas membranes (Sprague-Dawley)
T1 sequence (P30551 1-444): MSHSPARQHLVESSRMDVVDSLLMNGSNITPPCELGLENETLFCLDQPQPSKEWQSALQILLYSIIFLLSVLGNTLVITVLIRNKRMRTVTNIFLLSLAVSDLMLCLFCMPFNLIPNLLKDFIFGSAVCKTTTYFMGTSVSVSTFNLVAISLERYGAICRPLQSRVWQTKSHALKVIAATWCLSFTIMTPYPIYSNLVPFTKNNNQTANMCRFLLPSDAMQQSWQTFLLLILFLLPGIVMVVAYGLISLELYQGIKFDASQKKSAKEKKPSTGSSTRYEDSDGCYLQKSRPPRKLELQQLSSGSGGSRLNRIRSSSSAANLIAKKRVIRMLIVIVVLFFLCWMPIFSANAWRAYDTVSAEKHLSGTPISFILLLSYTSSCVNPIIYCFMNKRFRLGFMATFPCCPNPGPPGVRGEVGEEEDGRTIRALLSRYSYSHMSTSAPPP
In words: CCK Receptor Binding (Pancreas): inhibition of ^125 I-CCK-33 binding. Details: species or system Male Sprague-Dawley rats. The note with it: rat pancreas membranes, ^125 I-CCK-33, 37° C., 30 minutes. The essentials:
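Rat (male Sprague-Dawley) pancreatic membranes in 50 mM Tris HCl pH 7.7 with DTT, bacitracin, PMSF and o-phenanthroline; ^125I-Bolton Hunter-labelled CCK-33 as radioligand. Incubation 30 min at 37° C, separation by centrifugation, pellet gamma-counted; Scatchard analysis by diluting ^125I-CCK-33 with increasing CCK-33.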

Test [1] has as its target T2, CCK receptor (brain, cerebral cortex) (Cavia porcellus, UniProt H0VZC5).
T2 construct: Cerebral cortex was dissected and used as a receptor source; from tissue; host or cells: guinea pig cerebral cortex membranes (male Hartley)
T2 sequence (H0VZC5 1-426): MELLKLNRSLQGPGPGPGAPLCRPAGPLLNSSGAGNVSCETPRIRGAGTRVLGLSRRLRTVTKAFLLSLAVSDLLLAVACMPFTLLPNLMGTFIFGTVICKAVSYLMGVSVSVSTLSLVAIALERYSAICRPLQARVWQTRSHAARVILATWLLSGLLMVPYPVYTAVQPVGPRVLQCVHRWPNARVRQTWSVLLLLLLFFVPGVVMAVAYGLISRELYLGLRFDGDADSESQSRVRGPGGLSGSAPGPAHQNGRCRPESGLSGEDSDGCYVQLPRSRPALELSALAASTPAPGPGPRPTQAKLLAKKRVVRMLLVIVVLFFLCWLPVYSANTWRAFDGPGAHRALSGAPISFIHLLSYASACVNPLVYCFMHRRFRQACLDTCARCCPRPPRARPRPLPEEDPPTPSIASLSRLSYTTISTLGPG
In words: biochemical. It is filed as binding, Male Hartley guinea pigs. The note with it: guinea pig cerebral cortex, ^125 I-CCK-33, 25° C., 2 hours. The procedure, abridged: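 Guinea pig cerebral cortex homogenate as receptor source, with radiolabeled CCK-33 in HEPES buffer containing MgCl2, bacitracin, EGTA and 0.4% BSA. Incubation 2 h at 25°C; bound ligand pelleted by centrifugation and gamma-counted.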

The target of test [2] is T3, Gastrin receptor (gastric glands) (Cavia porcellus, UniProt H0VZC5).
T3 construct: The washed guinea pig gastric glands prepared as above were resuspended; from tissue; host or cells: guinea pig gastric mucosal glands (male Hartley)
T3 sequence (H0VZC5 1-426): T2 sequence (H0VZC5 1-426)
In words: Gastrin Receptor Binding in Guinea Pig Gastric Glands. Details: species or system guinea pig (male Hartley). To be noted: 25° C., 30 minutes.

Where [3] appears, read: read-out: IC50 ^125 I-CCK Brain.
[4] abbreviates: ^125 I-gastrin, read-out: IC50 ^125 I-Gastrin Gastric Glands.
[5] abbreviates: read-out: IC50 ^125 I-CCK Pancreas.
Where [6] appears, read: IC50 ^125 I-Gastrin Gastric Glands.

In the case of `CN1C(=O)C(C(O)c2cn(C)c3ccccc23)N=C(c2ccccc2)c2ccccc21` (racemic) [Example 50a, 1,3-Dihydro-3(RS)-[1-hydroxy-1-[3-(1-methylindolyl)]]-methyl-1-methyl-5-phenyl-2H-1,4-benzodiazepin-2-one], the negative logarithm of the IC50 (pIC50) (usually −log10 of the IC50, conventionally taken in molar units) at CCK receptor (pancreas) (IC50 ^125 I-CCK Pancreas) was 4.82; in test [1] (setting [3]), 5.59; in test [2] (setting [4]) it was 5.92.
For the molecule `CN1C(=O)C(C(O)c2cn(C)c3ccccc23)N=C(c2ccccc2)c2ccccc21` (racemic) [Example 50b, 1,3-Dihydro-3(RS)-[1-hydroxy-1-[3-(1-methylindolyl)]]-methyl-1-methyl-5-phenyl-2H-1,4-benzodiazepin-2-one], the negative-log IC50 (pIC50) at CCK receptor (pancreas) (IC50 ^125 I-CCK Pancreas) is 4.00; in test [1] (setting [3]), 4.40; in test [2] (setting [4]), 4.21.
As to `CN1C(=O)C(C(O)c2ccccc2)N=C(c2ccccc2)c2ccccc21` (racemic) [Example 51, 1,3-Dihydro-3(RS)-(1-hydroxy-1-phenyl)methyl-1-methyl-5-phenyl-2H-1,4-benzodiazepin-2-one], the values for the pIC50 (at CCK receptor (pancreas) (IC50 ^125 I-CCK Pancreas); in test [1] (setting [3]); in test [2] (setting [4])) were below 4.00, 4.49 and 4.60, respectively.
With `CN1C(=O)C(C(O)c2cccs2)N=C(c2ccccc2)c2ccccc21` (racemic) [Example 52, 1,3-Dihydro-3(RS)-[1-hydroxy-1-(2-thienyl)]methyl-1-methyl-5-phenyl-2H-1,4-benzodiazepin-2-one], the pIC50 on CCK receptor (pancreas) (IC50 ^125 I-CCK Pancreas) is below 4.00; in test [1] (setting [3]), 4.48; in test [2] (setting [4]), 4.59.
`CN1C(=O)C(O)(C(=O)c2ccsc2)N=C(c2ccccc2)c2ccccc21` (racemic) [Example 53a, 1,3-Dihydro-3-(RS)-hydroxy-1-methyl-5-phenyl-3-(3'-thienoyl)-2H-1,4-benzodiazepin-2-one]: the negative logarithm of the IC50 (pIC50) was 4.00 on CCK receptor (pancreas) (IC50 ^125 I-CCK Pancreas), 5.38 in test [1] (setting [3]) and 6.07 in test [2] (setting [4]).
Take `CN1C(=O)C(C(=O)c2ccsc2)=NC(O)(c2ccccc2)c2ccccc21` (racemic) [Example 53b, 1,5-Dihydro-5-(RS)-hydroxy-1-methyl-5-phenyl-3-(3'-thienoyl)-2H-1,4-benzodiazepin-2-one]: the pIC50 at CCK receptor (pancreas) (setting [5]) is 4.72; in test [1] (setting [3]), 4.00; in test [2] (setting [4]), below 4.00.
Regarding `O=C1Nc2ccccc2C(c2ccccc2)=NC1Cc1c[nH]c2ccc(Br)cc12` (racemic) [Example 57, 3(RS)-[3'-(5'-Bromoindolyl)methyl]-1,3-dihydro-5-phenyl-2H-1,4-benzodiazepin-2-one], the figures for the pIC50 (at CCK receptor (pancreas) (IC50 ^125 I-CCK Pancreas); in test [1] (IC50 ^125 I-CCK Brain); in test [2] (setting [6])) were 5.54, 4.00 and 3.15, respectively.
Take `O=C(c1ccccc1F)c1ccccc1NC(=O)C(CN1C(=O)c2ccccc2C1=O)N1C(=O)c2ccccc2C1=O` (racemic) [Example 62, 2-N-[2(RS)-3-diphthalylaminopropanoyl]amino-2'-fluorobenzophenone]: the negative-log IC50 (pIC50) at CCK receptor (pancreas) (setting [5]) is below 4.00; in test [1] (setting [3]) it was below 4.00; in test [2] (setting [4]), below 3.00.
With `NCC1N=C(c2ccccc2F)c2ccccc2NC1=O` (racemic) [Example 63, 1,3-Dihydro-5-(2'-fluorophenyl)-3(RS)-aminomethyl-2H-1,4-benzodiazepin-2-on], the pIC50 is below 4.00 at CCK receptor (pancreas) (IC50 ^125 I-CCK Pancreas), below 4.00 in test [1] (IC50 ^125 I-CCK Brain) and below 3.00 in test [2] (setting [6]).
On to `O=C1Nc2ccccc2C(c2ccccc2F)=NC1CNc1cncc(Cl)n1` (racemic) [Example 70, 1,3-Dihydro-5-(2'-fluorophenyl)-3-(RS)-(6'-chloropyrazin-2yl)aminomethyl-2H-4-benzodiazepin-2-one], for which the figures for the pIC50 (on CCK receptor (pancreas) (IC50 ^125 I-CCK Pancreas); in test [1] (setting [3]); in test [2] (setting [4])) were 4.82, 4.00 and 3.70, respectively.
On to `O=C(OC1N=C(c2ccccc2)c2ccccc2NC1=O)c1cc2ccccc2[nH]1` (racemic) [Example 107, 1,3-Dihydro-3-(RS)-(2-indolecarbonyloxy)-5-phenyl-2H-1,4-benzodiazepin-2-one], for which the negative-log IC50 (pIC50) is 7.31 at CCK receptor (pancreas) (IC50 ^125 I-CCK Pancreas), 4.30 in test [1] (IC50 ^125 I-CCK Brain) and below 5.00 in test [2] (setting [6]).
For the molecule `O=C(NC1N=C(c2ccccc2F)c2ccccc2NC1=O)c1ccc(Cl)cc1` (racemic) [Example 111, 1,3-Dihydro-3-(RS)-(4-chlorophenylcarbonyl)amino-5-(2-fluorophenyl)-2H-1,4-benzodiazepin-2-one], the values for the pIC50 (on CCK receptor (pancreas) (IC50 ^125 I-CCK Pancreas); in test [1] (IC50 ^125 I-CCK Brain); in test [2] (setting [6])) were 8.15, 4.40 and 5.08, respectively.
Turning to `Cc1ccc(S(=O)(=O)NC2N=C(c3ccccc3F)c3ccccc3NC2=O)cc1` (racemic) [Example 112, 1,3-Dihydro-3-(RS)-(4-methylphenylsulfonyl)amino-5-(2-fluorophenyl)-2H-1,4-benzodiazepin-2-one], the results for the negative logarithm of the IC50 (pIC50) (at CCK receptor (pancreas) (IC50 ^125 I-CCK Pancreas); in test [1] (setting [3]); in test [2] (setting [4])) were 4.62, below 4.30 and below 5.00, respectively.
In the case of `CC1=C(C(=O)NC2N=C(c3ccccc3F)c3ccccc3NC2=O)Cc2ccccc21` (racemic) [Example 115, 1,3-Dihydro-3-(RS)-(3'-methylindenyl-2-carbonyl)amino-5-(2-fluorophenyl)-2H-1,4-benzodiazepin-2-one], the pIC50 at CCK receptor (pancreas) (IC50 ^125 I-CCK Pancreas) was 7.66; in test [1] (setting [3]), 5.46; in test [2] (setting [4]), below 5.00.
With `O=C(NC1N=C(c2ccccc2F)c2ccccc2NC1=O)c1ccc2ccccc2n1` (racemic) [Example 116], the results for the negative-log IC50 (pIC50) (at CCK receptor (pancreas) (IC50 ^125 I-CCK Pancreas); in test [1] (setting [3]); in test [2] (setting [4])) were 6.52, 4.10 and below 5.00, respectively.
On to `O=C1Nc2ccccc2C(c2ccccc2F)=NC1NCc1cc2ccccc2[nH]1` (racemic) [Example 124, 1,3-Dihydro-5-(2-fluorophenyl)-3-(RS)-(2-indolylmethyl-amino)-2H-1,4-benzodiazepin-2-one], for which the pIC50 at CCK receptor (pancreas) (IC50 ^125 I-CCK Pancreas) was 6.60; in test [1] (IC50 ^125 I-CCK Brain) it was 4.00; in test [2] (setting [6]) it was below 5.00.
For the molecule `O=C(CNc1ccccc1)NC1N=C(c2ccccc2F)c2ccccc2NC1=O` (racemic) [Example 125, 1,3-Dihydro-3-(RS)-(phenylaminomethylcarbonyl)amino-5-(2-fluorophenyl)-2H-1,4-benzodiazepin-2-one], the pIC50 is 6.05 at CCK receptor (pancreas) (IC50 ^125 I-CCK Pancreas), 4.00 in test [1] (IC50 ^125 I-CCK Brain) and below 5.00 in test [2] (setting [6]).
Taken in the same sequence, the figures for `N#Cc1ccc(C(=O)NC2N=C(c3ccccc3)c3ccccc3NC2=O)cc1` (racemic) [Example 149, 3-(RS)-(4'-Cyanobenzoylamino)1,3-dihydro-5-phenyl-2H-1,4-benzodiazepin-2-one] were 6.14, below 4.00 and 4.66.
Turning to `O=C(NC1N=C(c2ccccc2F)c2ccccc2NC1=O)OCc1ccccc1` (racemic) [Example 175, 1,3-Dihydro-5-(2-fluorophenyl)-3(RS)-benzyloxycarbonylamino-2H-1,4-benzodiazepin-2-one], the pIC50 on CCK receptor (pancreas) (IC50 ^125 I-CCK Pancreas) is 6.15; in test [1] (setting [3]), 4.82; in test [2] (setting [4]), 5.10.
On to `O=C(NC1N=C(c2ccccc2F)c2ccccc2NC1=S)OCc1ccccc1` (racemic) [Example 176, 1,3-Dihydro-5-(2-fluorophenyl)-3-(RS)-benzyloxycarbonylamino-2H-1,4-benzodiazeoin-2-thione], for which the pIC50 at CCK receptor (pancreas) (IC50 ^125 I-CCK Pancreas) was 6.00; in test [1] (IC50 ^125 I-CCK Brain), 5.00; in test [2] (setting [6]) it was 5.49.
As for `O=C(OC1N=C(c2ccccc2F)c2ccccc2N(C(=O)c2ccc(Cl)cc2)C1=O)c1ccc(Cl)cc1` (racemic) [Example 178, 1-(4-Chlorophenyl)carbonyl-1,3-dihydro-5-(2-fluorophenyl)-3(RS)-(4-chlorophenyl)carbonyloxy-2H-1,4-benzodiazepin-2-one], the pIC50 at CCK receptor (pancreas) (IC50 ^125 I-CCK Pancreas) was 5.31; in test [1] (setting [3]), below 4.00; in test [2] (setting [4]), below 4.00.
